Experimental data from the NIST ThermoML archive (doi:10.1016/j.jct.2016.07.005).

Assay: xn = mol fraction of the nth substance listed
Settings: 100 kPa, Liquid; for viscosity: Concentric cylinders viscometry; for mass density: Vibrating tube method

CN1CCC[C@H]1c1cccnc1 [(-)-3-(N-methylpyrrolidino)pyridine] + OCCCO
Settings | mass density [kg/m3] | viscosity [mPa·s]
293.15 K, x1 = 0.1 | 1049.36 | 63.86
293.15 K, x1 = 0.1999 | 1045.43 | 63.55
293.15 K, x1 = 0.3 | 1041.3 | 55.97
293.15 K, x1 = 0.3994 | 1037.05 | 44.97
293.15 K, x1 = 0.5 | 1032.67 | 33.15
293.15 K, x1 = 0.6004 | 1028.25 | 22.75
293.15 K, x1 = 0.7 | 1023.76 | 14.91
293.15 K, x1 = 0.8 | 1019.33 | 9.805
293.15 K, x1 = 0.9 | 1014.74 | 6.894
293.15 K, x1 = 1 | 1010.23 | 4.694
298.15 K, x1 = 0.1 | 1045.96 | 48.97
298.15 K, x1 = 0.1999 | 1041.83 | 48.13
298.15 K, x1 = 0.3 | 1037.55 | 42.26
298.15 K, x1 = 0.3994 | 1033.17 | 34.05
298.15 K, x1 = 0.5 | 1028.72 | 25.35
298.15 K, x1 = 0.6004 | 1024.24 | 17.71
298.15 K, x1 = 0.7 | 1019.71 | 11.93
298.15 K, x1 = 0.8 | 1015.26 | 8.105
298.15 K, x1 = 0.9 | 1010.67 | 5.832
298.15 K, x1 = 1 | 1006.16 | 4.048
303.15 K, x1 = 0.1 | 1042.55 | 37.97
303.15 K, x1 = 0.1999 | 1038.21 | 36.9
303.15 K, x1 = 0.3 | 1033.78 | 32.31
303.15 K, x1 = 0.3994 | 1029.3 | 26.12
303.15 K, x1 = 0.5 | 1024.77 | 19.64
303.15 K, x1 = 0.6004 | 1020.24 | 13.95
303.15 K, x1 = 0.7 | 1015.68 | 9.624
303.15 K, x1 = 0.8 | 1011.2 | 6.722
303.15 K, x1 = 0.9 | 1006.61 | 4.943
303.15 K, x1 = 1 | 1002.1 | 3.518
308.15 K, x1 = 0.1 | 1039.14 | 29.84
308.15 K, x1 = 0.1999 | 1034.59 | 28.71
308.15 K, x1 = 0.3 | 1030.01 | 25.12
308.15 K, x1 = 0.3994 | 1025.41 | 20.41
308.15 K, x1 = 0.5 | 1020.81 | 15.5
308.15 K, x1 = 0.6004 | 1016.23 | 11.19
308.15 K, x1 = 0.7 | 1011.64 | 7.885
308.15 K, x1 = 0.8 | 1007.15 | 5.621
308.15 K, x1 = 0.9 | 1002.55 | 4.2
308.15 K, x1 = 1 | 998.055 | 3.088
313.15 K, x1 = 0.1 | 1035.71 | 23.69
313.15 K, x1 = 0.1999 | 1030.96 | 22.59
313.15 K, x1 = 0.3 | 1026.23 | 19.74
313.15 K, x1 = 0.3994 | 1021.52 | 16.11
313.15 K, x1 = 0.5 | 1016.85 | 12.36
313.15 K, x1 = 0.6004 | 1012.22 | 9.06
313.15 K, x1 = 0.7 | 1007.6 | 6.513
313.15 K, x1 = 0.8 | 1003.09 | 4.749
313.15 K, x1 = 0.9 | 998.498 | 3.625
313.15 K, x1 = 1 | 994.014 | 2.758
318.15 K, x1 = 0.1 | 1032.27 | 19.28
318.15 K, x1 = 0.1999 | 1027.32 | 18.26
318.15 K, x1 = 0.3 | 1022.43 | 15.95
318.15 K, x1 = 0.3994 | 1017.62 | 13.08
318.15 K, x1 = 0.5 | 1012.88 | 10.14
318.15 K, x1 = 0.6004 | 1008.21 | 7.559
318.15 K, x1 = 0.7 | 1003.56 | 5.549
318.15 K, x1 = 0.8 | 999.04 | 4.128
318.15 K, x1 = 0.9 | 994.453 | 3.18
318.15 K, x1 = 1 | 989.984 | 2.411
323.15 K, x1 = 0.1 | 1028.82 | 15.87
323.15 K, x1 = 0.1999 | 1023.66 | 14.94
323.15 K, x1 = 0.3 | 1018.63 | 13.05
323.15 K, x1 = 0.3994 | 1013.72 | 10.76
323.15 K, x1 = 0.5 | 1008.9 | 8.437
323.15 K, x1 = 0.6004 | 1004.18 | 6.389
323.15 K, x1 = 0.7 | 999.506 | 4.782
323.15 K, x1 = 0.8 | 994.989 | 3.625
323.15 K, x1 = 0.9 | 990.406 | 2.837
323.15 K, x1 = 1 | 985.962 | 2.195
